Values of other authors in US10172940B2 (priority 2009, dated 2019).

Test system: canine visceral leishmaniasis (CVL)

Compound: Oc1ncnc2[nH]ncc12 [allopurinol]
- parasitological cure and PCR result (20 months of treatment): without parasitological cure or negative results for PCR
- clinical recovery / clinical improvement (dog, in vivo): 9/10
- dogs remaining positive for parasites (culture, PCR of lymph node, parasitological aspect) (dog, in vivo): 8 dogs

Compound: NC[C@@H]1O[C@H](O[C@H]2[C@@H](O)[C@H](O[C@@H]3[C@@H](O)[C@H](N)C[C@H](N)[C@H]3O[C@H]3O[C@H](CO)[C@@H](O)[C@H](O)[C@H]3N)O[C@@H]2CO)[C@H](N)[C@@H](O)[C@@H]1O [aminosidine]
- dogs remaining positive for parasites (culture, PCR of lymph node, parasitological aspect) (dog, in vivo): 4/4
- dogs with absence of symptoms and parasites for 4 years (higher doses): 3/12
- dogs with relapse (higher doses): 9

Compound: N=C(N)c1ccc(OCCCCCOc2ccc(C(=N)N)cc2)cc1 [pentamidine]
- clinical recovery / clinical improvement (dog, in vivo): improve clinically
- recurrence of the disease (dog, in vivo): show recurrence of the disease

Compound: Meglumine antimoniate
- treated dogs from which parasites were recovered (15 dogs treated): 79%
- dogs PCR positive after treatment (dog, in vivo): 5/6
